Measured values as given in ChEMBL document CHEMBL4257514, “Design and synthesis of novel 1,3,5-triphenyl pyrazolines as potential anti-inflammatory agents through allosteric inhibition of protein kinase Czeta (PKCζ)” (Medchemcomm, 2018).
Calls of active or inactive are those of the source. The rule behind the calls is not given here.

Columns and labels:
[1] = target: T1, Protein kinase C zeta type (Homo sapiens, UniProt Q05513); assay: Inhibition of recombinant GST-fused PKCzeta (unknown origin) expressed in HEK293 cells using myelin basic protein as substrate measured after 40 mins in presence of [gamma32P]ATP by phosphorimaging analysis
T1 sequence (Q05513 whole entry): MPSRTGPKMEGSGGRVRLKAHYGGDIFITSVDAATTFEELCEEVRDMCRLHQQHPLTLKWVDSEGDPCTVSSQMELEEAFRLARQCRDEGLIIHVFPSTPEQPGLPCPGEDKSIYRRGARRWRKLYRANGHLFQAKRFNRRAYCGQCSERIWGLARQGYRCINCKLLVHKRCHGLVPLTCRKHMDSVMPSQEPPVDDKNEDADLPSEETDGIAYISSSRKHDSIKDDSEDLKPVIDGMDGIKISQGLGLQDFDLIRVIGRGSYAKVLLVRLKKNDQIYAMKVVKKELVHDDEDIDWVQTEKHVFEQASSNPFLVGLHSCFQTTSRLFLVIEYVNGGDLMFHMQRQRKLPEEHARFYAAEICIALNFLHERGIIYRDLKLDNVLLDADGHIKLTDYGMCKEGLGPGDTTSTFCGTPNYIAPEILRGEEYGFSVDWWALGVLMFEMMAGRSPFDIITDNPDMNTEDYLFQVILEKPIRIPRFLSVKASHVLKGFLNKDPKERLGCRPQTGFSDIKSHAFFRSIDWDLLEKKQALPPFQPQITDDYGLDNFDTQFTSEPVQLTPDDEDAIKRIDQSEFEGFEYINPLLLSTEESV

[2] = target: T2, Protein kinase C iota type (Homo sapiens) (UniProt P41743); assay: Inhibition of recombinant GST-fused PKCiota (unknown origin) expressed in HEK293 cells at 20 uM using myelin basic protein as substrate measured after 40 mins in presence of [gamma32P]ATP by phosphorimaging analysis relative to control
T2 sequence (whole entry): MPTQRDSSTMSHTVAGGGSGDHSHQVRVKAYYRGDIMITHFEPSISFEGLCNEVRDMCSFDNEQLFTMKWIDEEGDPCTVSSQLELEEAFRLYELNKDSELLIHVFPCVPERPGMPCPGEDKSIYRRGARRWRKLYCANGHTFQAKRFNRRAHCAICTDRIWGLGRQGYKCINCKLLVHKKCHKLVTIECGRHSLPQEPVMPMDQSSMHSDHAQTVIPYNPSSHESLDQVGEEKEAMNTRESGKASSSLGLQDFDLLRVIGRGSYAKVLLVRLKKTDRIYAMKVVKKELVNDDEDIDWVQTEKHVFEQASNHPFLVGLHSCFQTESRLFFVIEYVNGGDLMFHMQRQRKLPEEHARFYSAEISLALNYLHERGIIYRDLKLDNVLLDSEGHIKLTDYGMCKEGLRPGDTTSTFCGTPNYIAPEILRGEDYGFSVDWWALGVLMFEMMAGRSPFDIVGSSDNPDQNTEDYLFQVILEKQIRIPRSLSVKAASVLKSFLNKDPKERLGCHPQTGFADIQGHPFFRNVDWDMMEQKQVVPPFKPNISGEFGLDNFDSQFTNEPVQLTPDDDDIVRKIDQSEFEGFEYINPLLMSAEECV

RAW264.7 [3] = assay: Inhibition of LPS-induced nitric oxide production in mouse RAW264.7 cells at 7.5 uM measured after 20 hrs by griess assay relative to control; format: functional; details: RAW264.7, 20 h
[4] = Cytotoxicity against mouse RAW264.7 cells assessed as live cells at 7.5 uM after 20 hrs by MTT assay relative to control; format: cell-based; details: read-out: Activity
RAW264.7 [5] = assay: Inhibition of LPS-induced nitric oxide production in mouse RAW264.7 cells measured after 20 hrs by griess assay; format: functional, cell-based; details: RAW264.7, 20 h
[6] = target: Protein kinase C alpha type (Homo sapiens) (UniProt P17252); assay: Inhibition of PKCalpha (unknown origin) at 10 uM
[7] = target: Protein kinase C beta type (Homo sapiens) (UniProt P05771); assay: Inhibition of PKCbeta1 (unknown origin) at 10 uM
Protein kinase C beta type (Homo sapiens), sequence (P05771 2-671 limits assumed): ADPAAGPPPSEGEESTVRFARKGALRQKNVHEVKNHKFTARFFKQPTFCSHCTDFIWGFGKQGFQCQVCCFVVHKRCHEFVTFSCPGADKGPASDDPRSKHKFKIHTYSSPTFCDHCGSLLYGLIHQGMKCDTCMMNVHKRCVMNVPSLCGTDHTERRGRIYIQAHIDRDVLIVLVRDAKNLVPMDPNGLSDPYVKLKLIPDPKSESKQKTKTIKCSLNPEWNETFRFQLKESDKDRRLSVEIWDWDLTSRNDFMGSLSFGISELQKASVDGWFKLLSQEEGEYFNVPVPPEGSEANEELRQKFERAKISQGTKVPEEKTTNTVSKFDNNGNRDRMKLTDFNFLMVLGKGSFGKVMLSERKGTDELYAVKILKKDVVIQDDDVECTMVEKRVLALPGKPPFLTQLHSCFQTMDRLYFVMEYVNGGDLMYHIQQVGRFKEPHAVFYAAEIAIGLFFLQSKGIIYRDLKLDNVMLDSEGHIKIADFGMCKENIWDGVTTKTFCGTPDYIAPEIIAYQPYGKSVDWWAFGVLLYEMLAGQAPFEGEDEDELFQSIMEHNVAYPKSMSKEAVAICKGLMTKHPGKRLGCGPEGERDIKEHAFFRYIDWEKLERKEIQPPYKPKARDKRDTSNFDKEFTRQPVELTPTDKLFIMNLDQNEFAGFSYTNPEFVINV

[8] = target: Protein kinase C beta type (Homo sapiens) (UniProt P05771); assay: Inhibition of PKCbeta2 (unknown origin) at 10 uM
[9] = target: Protein kinase C gamma type (Homo sapiens) (UniProt P05129); assay: Inhibition of PKCgamma (unknown origin) at 10 uM
[10] = target: Protein kinase C delta type (Homo sapiens) (UniProt Q05655); assay: Inhibition of PKCdelta (unknown origin) at 10 uM
Protein kinase C delta type (Homo sapiens), sequence (Q05655 whole entry, looked up): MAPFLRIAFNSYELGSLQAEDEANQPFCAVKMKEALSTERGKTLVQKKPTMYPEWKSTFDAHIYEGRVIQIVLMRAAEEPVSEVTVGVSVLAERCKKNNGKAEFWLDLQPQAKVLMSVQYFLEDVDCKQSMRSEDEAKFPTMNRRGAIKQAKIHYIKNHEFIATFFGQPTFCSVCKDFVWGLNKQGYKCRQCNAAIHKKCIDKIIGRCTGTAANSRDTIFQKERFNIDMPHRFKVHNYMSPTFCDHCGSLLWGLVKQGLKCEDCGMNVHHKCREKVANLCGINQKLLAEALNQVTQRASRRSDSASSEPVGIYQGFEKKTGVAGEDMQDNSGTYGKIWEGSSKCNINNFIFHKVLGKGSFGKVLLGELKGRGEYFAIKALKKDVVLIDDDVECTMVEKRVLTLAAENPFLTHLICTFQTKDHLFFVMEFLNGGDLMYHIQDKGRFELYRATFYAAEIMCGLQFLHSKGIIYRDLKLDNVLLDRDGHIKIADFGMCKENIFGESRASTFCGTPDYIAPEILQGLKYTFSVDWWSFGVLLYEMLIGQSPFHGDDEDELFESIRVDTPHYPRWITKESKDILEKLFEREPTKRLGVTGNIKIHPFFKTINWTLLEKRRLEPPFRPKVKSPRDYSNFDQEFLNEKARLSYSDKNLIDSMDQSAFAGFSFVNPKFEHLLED

[11] = target: T3, Protein kinase C epsilon type (Homo sapiens) (UniProt Q02156); assay: Inhibition of PKCepsilon (unknown origin) at 10 uM
T3 sequence (whole entry): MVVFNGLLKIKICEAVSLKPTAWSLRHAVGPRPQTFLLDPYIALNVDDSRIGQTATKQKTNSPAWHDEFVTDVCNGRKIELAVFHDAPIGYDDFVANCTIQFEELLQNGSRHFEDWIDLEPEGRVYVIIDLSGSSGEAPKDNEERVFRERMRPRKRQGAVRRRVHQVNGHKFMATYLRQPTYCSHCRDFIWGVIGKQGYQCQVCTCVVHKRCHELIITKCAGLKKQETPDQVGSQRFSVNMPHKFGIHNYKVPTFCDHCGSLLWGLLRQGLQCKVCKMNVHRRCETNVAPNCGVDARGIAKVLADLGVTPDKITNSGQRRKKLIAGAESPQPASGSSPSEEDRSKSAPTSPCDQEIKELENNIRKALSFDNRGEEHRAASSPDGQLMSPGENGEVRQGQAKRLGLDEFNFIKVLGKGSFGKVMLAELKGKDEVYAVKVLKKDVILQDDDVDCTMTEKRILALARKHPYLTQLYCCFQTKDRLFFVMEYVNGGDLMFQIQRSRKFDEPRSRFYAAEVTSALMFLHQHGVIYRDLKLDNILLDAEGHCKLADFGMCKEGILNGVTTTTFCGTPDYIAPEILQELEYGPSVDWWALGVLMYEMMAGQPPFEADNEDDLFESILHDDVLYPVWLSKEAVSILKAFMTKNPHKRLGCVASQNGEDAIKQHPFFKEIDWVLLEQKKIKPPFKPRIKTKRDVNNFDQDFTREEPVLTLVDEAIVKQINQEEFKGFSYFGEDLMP

[12] = target: Protein kinase C eta type (Homo sapiens) (UniProt P24723); assay: Inhibition of PKCeta (unknown origin) at 10 uM
Protein kinase C eta type (Homo sapiens), sequence (P24723 whole entry): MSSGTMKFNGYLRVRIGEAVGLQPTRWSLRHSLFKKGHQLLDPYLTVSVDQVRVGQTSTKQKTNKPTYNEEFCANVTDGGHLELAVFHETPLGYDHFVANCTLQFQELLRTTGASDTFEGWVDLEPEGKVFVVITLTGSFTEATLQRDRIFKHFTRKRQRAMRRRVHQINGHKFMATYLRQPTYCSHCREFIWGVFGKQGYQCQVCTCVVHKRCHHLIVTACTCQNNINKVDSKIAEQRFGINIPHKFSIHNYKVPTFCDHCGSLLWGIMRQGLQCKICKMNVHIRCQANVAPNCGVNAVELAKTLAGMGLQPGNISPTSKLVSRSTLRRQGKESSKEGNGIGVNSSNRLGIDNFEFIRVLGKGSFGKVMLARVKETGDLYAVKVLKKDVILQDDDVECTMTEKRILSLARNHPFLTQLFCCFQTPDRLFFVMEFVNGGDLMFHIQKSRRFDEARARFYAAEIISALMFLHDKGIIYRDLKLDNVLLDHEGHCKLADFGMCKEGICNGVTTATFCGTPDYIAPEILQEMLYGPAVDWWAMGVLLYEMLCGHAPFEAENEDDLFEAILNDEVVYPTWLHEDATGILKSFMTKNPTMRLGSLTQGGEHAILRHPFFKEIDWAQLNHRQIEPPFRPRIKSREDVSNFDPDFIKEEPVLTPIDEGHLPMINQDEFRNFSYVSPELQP

[13] = target: Protein kinase C theta type (Homo sapiens) (UniProt Q04759); assay: Inhibition of PKCtheta (unknown origin) at 10 uM
Protein kinase C theta type (Homo sapiens), sequence (Q04759 whole entry, looked up): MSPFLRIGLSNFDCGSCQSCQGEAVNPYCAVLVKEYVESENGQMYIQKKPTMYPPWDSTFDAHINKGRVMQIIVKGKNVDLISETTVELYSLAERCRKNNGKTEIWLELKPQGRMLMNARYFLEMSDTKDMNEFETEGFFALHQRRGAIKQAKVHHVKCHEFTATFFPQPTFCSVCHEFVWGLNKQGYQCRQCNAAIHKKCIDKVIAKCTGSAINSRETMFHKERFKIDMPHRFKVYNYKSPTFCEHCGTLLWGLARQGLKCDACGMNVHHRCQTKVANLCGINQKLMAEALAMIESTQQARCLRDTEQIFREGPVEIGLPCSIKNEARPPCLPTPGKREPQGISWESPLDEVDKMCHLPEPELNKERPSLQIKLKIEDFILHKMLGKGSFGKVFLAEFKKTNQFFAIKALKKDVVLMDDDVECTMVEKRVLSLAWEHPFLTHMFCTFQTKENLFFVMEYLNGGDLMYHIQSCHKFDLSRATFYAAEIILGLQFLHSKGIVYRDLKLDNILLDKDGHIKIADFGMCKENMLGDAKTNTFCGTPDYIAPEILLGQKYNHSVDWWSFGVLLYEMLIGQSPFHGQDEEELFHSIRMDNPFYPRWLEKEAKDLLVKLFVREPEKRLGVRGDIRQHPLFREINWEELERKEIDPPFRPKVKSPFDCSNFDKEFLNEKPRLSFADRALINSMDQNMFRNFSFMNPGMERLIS

[14] = target: Serine/threonine-protein kinase N1 (Homo sapiens) (UniProt Q16512); assay: Inhibition of PKN1 (unknown origin) at 10 uM
[15] = target: T4, 3-phosphoinositide-dependent protein kinase 1 (Homo sapiens) (UniProt O15530); assay: Inhibition of PDK1 (unknown origin) at 10 uM
T4 sequence (whole entry): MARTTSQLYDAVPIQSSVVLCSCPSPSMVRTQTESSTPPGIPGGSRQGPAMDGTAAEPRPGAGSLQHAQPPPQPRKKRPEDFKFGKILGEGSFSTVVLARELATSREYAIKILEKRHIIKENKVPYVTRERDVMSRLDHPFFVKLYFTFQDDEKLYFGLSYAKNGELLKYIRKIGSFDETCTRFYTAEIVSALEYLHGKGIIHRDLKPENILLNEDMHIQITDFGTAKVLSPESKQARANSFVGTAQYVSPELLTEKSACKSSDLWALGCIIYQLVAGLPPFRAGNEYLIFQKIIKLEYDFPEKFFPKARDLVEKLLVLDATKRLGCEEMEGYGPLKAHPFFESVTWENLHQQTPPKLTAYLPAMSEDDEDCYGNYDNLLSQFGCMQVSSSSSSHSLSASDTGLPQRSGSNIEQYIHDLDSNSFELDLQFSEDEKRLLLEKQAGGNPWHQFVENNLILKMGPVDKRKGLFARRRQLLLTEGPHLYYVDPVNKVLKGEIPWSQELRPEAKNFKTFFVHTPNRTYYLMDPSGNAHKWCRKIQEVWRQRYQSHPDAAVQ

[16] = target: Protein kinase C zeta type (Homo sapiens, UniProt Q05513, V297L); assay: Inhibition of recombinant GST-fused PKCzeta Val297Leu mutant (unknown origin) expressed in HEK293 cells using myelin basic protein as substrate measured after 40 mins in presence of [gamma32P]ATP by phosphorimaging analysis
Protein kinase C zeta type (Homo sapiens, UniProt Q05513, V297L), sequence (Q05513 whole entry V297L, the tested form may be a part): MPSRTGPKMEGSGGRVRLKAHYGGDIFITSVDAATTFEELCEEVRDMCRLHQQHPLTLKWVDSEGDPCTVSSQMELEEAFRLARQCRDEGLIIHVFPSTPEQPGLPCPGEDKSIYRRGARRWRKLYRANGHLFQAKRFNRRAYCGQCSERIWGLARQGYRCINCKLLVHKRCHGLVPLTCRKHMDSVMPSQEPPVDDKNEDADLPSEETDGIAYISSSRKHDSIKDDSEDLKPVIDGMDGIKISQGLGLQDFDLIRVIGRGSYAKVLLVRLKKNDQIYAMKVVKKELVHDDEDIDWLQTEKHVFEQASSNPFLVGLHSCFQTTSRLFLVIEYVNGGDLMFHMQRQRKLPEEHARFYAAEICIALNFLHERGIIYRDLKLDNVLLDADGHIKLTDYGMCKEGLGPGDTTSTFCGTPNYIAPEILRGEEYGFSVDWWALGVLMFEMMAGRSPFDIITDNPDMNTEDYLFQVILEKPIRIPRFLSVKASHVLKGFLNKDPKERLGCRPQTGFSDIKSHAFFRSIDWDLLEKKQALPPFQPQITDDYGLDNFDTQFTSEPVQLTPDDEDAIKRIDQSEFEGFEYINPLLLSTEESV

Homo sapiens = species on record: Homo sapiens; assay: Selectivity ratio of IC50 for recombinant GST-fused PKCzeta Val297Leu mutant (unknown origin) expressed in HEK293 cells to IC50 for recombinant GST-fused PKCzeta (unknown origin) expressed in HEK293 cells; format: cell-based

Structure (SMILES) | IC50 [1] [nM] | inhibition [2] [%] | inhibition at 7.5 µM (RAW264.7 [3]) [%] | viability at 20 h, 7.5 µM [4] [%] | IC50 (RAW264.7 [5]) [nM] | other results
Oc1ccc(C2=NN(c3ccc(Cl)cc3)C(c3cccc(Cl)c3)C2)cc1 (stereo unspecified) | < 100 | 18.6 | 34 | 96 |  | 
COc1cc(/C=C/C(=O)CC(=O)/C=C/c2ccc(O)c(OC)c2)ccc1O [CURCUMIN] |  |  | 97 |  | 800 | 
Oc1ccc(C2=NN(c3ccc(Cl)cc3)C(c3ccc(Cl)cc3)C2)cc1O (stereo unspecified) |  | 27.6 | 100 | 94 | 300 | inhibition [6]: inactive; inhibition [7]: inactive; inhibition [8]: inactive; inhibition [9]: inactive; inhibition [10]: inactive; inhibition [11]: 11%; inhibition [12]: inactive; inhibition [13]: inactive; inhibition [14]: 11%; inhibition [15]: 1%
Oc1ccc(C2=NN(c3cccc(Cl)c3)C(c3cccc(Cl)c3)C2)cc1 (stereo unspecified) | 400 | 29 | 31.5 | 86 |  | IC50 [16]: 4100 nM; Ratio IC50 (Homo sapiens): 10.2
Oc1ccc(C2=NN(c3ccc(Cl)cc3)C(c3ccc(Cl)cc3)C2)cc1 (stereo unspecified) |  | 24.9 | 62.4 | 99 |  | 
Oc1ccc(C2=NN(c3cccc(Cl)c3)C(c3ccc(Cl)cc3)C2)cc1 (stereo unspecified) | < 100 | 22.8 | 42.8 | 91 |  | 
Oc1ccc(C2=NN(c3ccc(Cl)cc3)C(c3ccc(Cl)cc3)C2)c(O)c1 (stereo unspecified) | 4300 | 14.8 | 31.4 | 88 |  | IC50 [16]: 9700 nM; Ratio IC50 (Homo sapiens): 2.2
Oc1ccc(C2=NN(c3cccc(Cl)c3)C(c3ccc(O)c(F)c3)C2)c(O)c1 (stereo unspecified) | < 100 |  | 87 |  | 3100 | 
Oc1ccc(C2=NN(c3ccccc3Cl)C(c3ccccc3Cl)C2)cc1 (stereo unspecified) |  | 30.5 | 34 | 92 |  | 
Oc1cccc(C2=NN(c3ccc(Cl)cc3)C(c3ccc(Cl)cc3)C2)c1 (stereo unspecified) | 6500 | 9.3 | 45 | 91 |  | 
Oc1ccc(C2CC(c3ccccc3O)=NN2c2cccc(Cl)c2)cc1F (stereo unspecified) |  |  | 86 |  | 2900 | 
